Results published in publication PMC6630832, “3-Vinylazetidin-2-Ones: Synthesis, Antiproliferative and Tubulin Destabilizing Activity in MCF-7 and MDA-MB-231 Breast Cancer Cells” (Pharmaceuticals, 2019).
Read-outs that look alike come from different tables or passages of the source.

Tests used:
Format in all cases: cell-based
[1] = test system: human MDA-MB-231 breast cancer cells; test: Cell viability (Alamar Blue) antiproliferative assay in MDA-MB-231 cells; details: mean ± SEM
Experimental: The human breast carcinoma cell line MCF-7, was purchased from the European Collection of Animal Cell Cultures (ECACC) and was cultured in Eagle’s minimum essential medium with 10% fetal bovine serum, 2 mM L-glutamine and 100 μg/mL penicillin/streptomycin. The medium was supplemented with 1% non-essential amino acids. The human breast carcinoma cell line MDA-MB-231 was purchased from the European Collection of Animal Cell Cultures (ECACC). MDA-MB-231 cells were maintained in Dulbecco’s modified Eagle’s medium (DMEM) supplemeted with 10% (v/v) fetal bovine serum, 2 mM L-glutamine and 100 μg/mL penicillin/streptomycin (complete medium). All media contained 100 U/mL penicillin and 100 μg/mL streptomycin. Triple negative breast cancer Hs578T cells and its invasive variant Hs578Ts(i)8 were obtained as a kind gift from Dr. Susan McDonnell, School of Chemical and Bioprocess Engineering, University College Dublin and were cultured in Dulbecco’s Modified Eagle’s Media (DMEM) with GlutaMAX^TM-I, with the same supplement as for MDA-MB-231 cells in the absence of non-essential amino acids. HEK-293T normal epithelial embryonic kidney cells were cultured in Dulbecco’s Modified Eagle’s Medium (DMEM) with GlutaMAX^TM-I in the absence of non-essential amino acids. K562 and HL-60 cells were originally obtained from the European Collection of Cell Cultures (Salisbury, UK).The K562 cells were derived from a patient in the blast crisis stage of CML HL-60 cells were derive from a patient with acute myeloid leukaemia. Cells were cultured in RPMI-1640 Glutamax medium supplemented with 10% FCS media, and 100 μg/mL penicillin/streptomycin. Cells were maintained at 37 °C in 5% CO2 in a humidified incubator. All cells were sub-cultured three times/week (adherent cells by trypsinisation).
Cells were seeded at a density of 5 × 10^3 cells/well (MCF-7), in triplicate in 96-well plates. After 24 h, cells were then treated with either medium alone, vehicle [1% ethanol (v/v)] or with serial dilutions of CA-4 or β-lactam analogue. Cell viability for MCF-7 and MDA-MB-231 was analysed using the Alamar Blue assay (Invitrogen Corp, Thermo Fisher Scientific, 168 Third Avenue, Waltham, MA, USA) according to the manufacturer’s instructions. After 72 h, Alamar Blue [10% (v/v)] was added to each well and plates were incubated for 3–5 h at 37 °C in the dark. Fluorescence was read using a 96-well fluorimeter with excitation at 530 nm and emission at 590 nm. Results were expressed as percentage viability relative to vehicle control (100%). Dose response curves were plotted and IC50 values (concentration of drug resulting in 50% reduction in cell survival) were obtained using the commercial software package Prism (GraphPad Software, Inc., 2365 Northside, Suite 560, San Diego, CA, USA). Experiments were performed in triplicate on at least three separate occasions.

[2] = test system: NCI/ADR-RES; test: NCI60 screen (SRB), Ovarian cancer; details: Homo sapiens
[3] = test system: BT-549; test: NCI60 screen (SRB), Breast cancer; details: Homo sapiens
[4] = test system: LOX IMVI; test: NCI60 screen (SRB), Melanoma; details: Homo sapiens
[5] = test system: OVCAR-4; test: NCI60 screen (SRB), Ovarian cancer; details: Homo sapiens
[6] = test system: HCT-15; test: NCI60 screen (SRB), Colon Cancer; details: Homo sapiens
[7] = test system: UACC-62; test: NCI60 screen (SRB), Melanoma; details: Homo sapiens
[8] = test system: ACHN; test: NCI60 screen (SRB), Renal cancer; details: Homo sapiens
[9] = test system: SK-OV-3; test: NCI60 screen (SRB), Ovarian cancer; details: Homo sapiens
[10] = test system: MCF-7; test: NCI60 screen (SRB), Breast cancer; details: Homo sapiens, MCF7
[11] = test system: KM12; test: NCI60 screen (SRB), Colon Cancer; details: Homo sapiens
[12] = test system: COLO 205; test: NCI60 screen (SRB), Colon Cancer; details: Homo sapiens
[13] = test system: HS 578T; test: NCI60 screen (SRB), Breast cancer; details: Homo sapiens
[14] = test system: SF539; test: NCI60 screen (SRB), CNS Cancer; details: Homo sapiens, SF-539
[15] = test system: SR; test: NCI60 screen (SRB), Leukemia; details: Homo sapiens
[16] = test system: K-562; test: NCI60 screen (SRB), Leukemia; details: Homo sapiens, K562
[17] = test system: CCRF-CEM; test: NCI60 screen (SRB), Leukemia; details: Homo sapiens
[18] = NCI60 Ovarian cancer cell line NCI/ADR-RES, read-out: GI50
[19] = NCI60 Breast cancer cell line BT-549, read-out: GI50
[20] = NCI60 Melanoma cell line LOX IMVI, read-out: GI50
[21] = NCI60 Ovarian cancer cell line OVCAR-4, read-out: GI50
[22] = NCI60 Colon Cancer cell line HCT-15, read-out: GI50
[23] = NCI60 Melanoma cell line UACC-62, read-out: GI50
[24] = NCI60 Renal cancer cell line ACHN, read-out: GI50
[25] = NCI60 Ovarian cancer cell line SK-OV-3, read-out: GI50
[26] = NCI result in MCF-7 cells, read-out: GI50
[27] = NCI60 Colon Cancer cell line KM12, read-out: GI50
[28] = NCI60 Colon Cancer cell line COLO 205, read-out: GI50
[29] = NCI60 Breast cancer cell line HS 578T, read-out: GI50
[30] = NCI60 CNS Cancer cell line SF539, read-out: GI50
[31] = NCI60 Leukemia cell line SR, read-out: GI50
[32] = NCI60 Leukemia cell line K-562, read-out: GI50
[33] = NCI60 Leukemia cell line CCRF-CEM, read-out: GI50

Row | Compound | IC50 [1] [nM] | GI50 ([2]; NCI/ADR-RES) [nM] | GI50 ([3]; BT-549) [nM] | GI50 ([4]; LOX IMVI) [nM] | GI50 ([5]; OVCAR-4) [nM] | GI50 ([6]; HCT-15) [nM] | GI50 ([7]; UACC-62) [nM] | GI50 ([8]; ACHN) [nM] | GI50 [2, 18] [nM] | GI50 [3, 19] [nM] | GI50 [4, 20] [nM] | GI50 [5, 21] [nM] | GI50 [6, 22] [nM] | GI50 [7, 23] [nM] | GI50 [8, 24] [nM] | GI50 [9, 25] [nM] | GI50 [10, 26] [nM] | GI50 [11, 27] [nM] | GI50 [12, 28] [nM] | GI50 [13, 29] [nM] | also measured
1 | COc1ccc(/C=C\c2cc(OC)c(OC)c(OC)c2)cc1O [CA-4, Combretastatin A-4, reference compound] | 43 |  |  |  |  |  |  |  |  |  |  |  |  |  |  |  |  |  |  |  | 
2 | C=CC1C(=O)N(c2cc(OC)c(OC)c(OC)c2)C1c1ccc(OC)cc1 (stereo not drawn) [Compound 7h, 4-(4-Methoxyphenyl)-1-(3,4,5-trimethoxyphenyl)-3-vinylazetidin-2-one] |  | 27.2 | 32.5 | 41.6 | 77.6 | 37.1 | 50.2 | 61.5 |  |  |  |  |  |  |  |  |  |  |  |  | GI50 ([9]; SK-OV-3): 28.5 nM; GI50 [10]: 30.6 nM; GI50 ([11]; KM12): 35.1 nM; GI50 ([12]; COLO 205): 20.6 nM; GI50 ([13]; Hs-578T): 72.7 nM
3 | C=CC1C(=O)N(c2cc(OC)c(OC)c(OC)c2)C1c1ccc(OC)c(O)c1 (stereo not drawn) [Compound 7s, 4-[3-Hydroxy-4-methoxyphenyl]-1-(3,4,5-trimethoxyphenyl)-3-vinylazetidin-2-one] |  |  |  |  |  |  |  |  | < 10 | < 10 | < 10 | 13.1 | 18 | < 10 | < 10 | 10.5 | < 10 | < 10 | 32.1 | < 10 | 
4 | C=CC1C(=O)N(c2cc(OC)c(OC)c(OC)c2)C1c1ccc(OC)c(N)c1 (stereo not drawn) [Compound 7t, 4-(3-Amino-4-methoxyphenyl)-1-(3,4,5-trimethoxyphenyl)-3-vinylazetidin-2-one] | 30 ± 2 | < 10 | 25.9 | < 10 | < 10 | 28.7 | 12300 | 37.3 |  |  |  |  |  |  |  |  |  |  |  |  | GI50 [14]: < 10 nM; GI50 ([15]; SR): 43.9 nM; GI50 [16]: 37.2 nM; GI50 ([9]; SK-OV-3): 45.7 nM; GI50 [10]: < 10 nM; GI50 ([11]; KM12): 24.2 nM; GI50 ([17]; CCRF-CEM): 32.6 nM; GI50 ([12]; COLO 205): 17.5 nM; GI50 ([13]; Hs-578T): 39.8 nM
5 | C=CC1C(=O)N(c2cc(OC)c(OC)c(OC)c2)C1c1ccc(OC)c(OP(=O)(O)O)c1 (stereo not drawn) [Compound 17b, 2-Methoxy-5-(1-(3,4,5-trimethoxyphenyl)-4-oxo-3-vinylazetidin-2-yl)phenyl dihydrogen phosphate] |  |  |  |  |  |  |  |  | 37 | 115 | 42.2 | 160 | 47.4 | 51.1 | 64.5 | 97.7 | 39.4 | 39.1 | 1910 | 53.1 | GI50 [14, 30]: 42 nM; GI50 [15, 31]: 57.2 nM; GI50 [16, 32]: 41.5 nM; GI50 [17, 33]: 60.4 nM
6 | CCC1C(=O)N(c2cc(OC)c(OC)c(OC)c2)C1c1ccc(OC)c(OP(=O)(O)O)c1 (stereo not drawn) [Compound 17c, 5-(3-Ethyl-1-(3,4,5-trimethoxyphenyl)-4-oxoazetidin-2-yl)-2-methoxyphenyl dihydrogen phosphate] | 44 ± 7 |  |  |  |  |  |  |  | 19.1 | 33.8 | 24.1 | 168 | 29.6 | 34.8 | 38.5 | 34.1 | 25.1 | 22 | 204 | 37.1 | GI50 [14, 30]: 16.2 nM; GI50 [15, 31]: 33.5 nM; GI50 [16, 32]: 35 nM; GI50 [17, 33]: 32.5 nM
